# Results published in patent US20240199546A1, “INHIBITORS OF SOLUTE CARRIER FAMILY 6A MEMBER 19 (SLC6A19) AND METHODS OF USE THEREOF” (Maze Therapeutics, Inc., priority 2022, published 2024).
# Target: T1, human SLC6A19 and TMEM27 (Homo sapiens, UniProt Q695T7)
# T1 construct: expressed in transfected cells
# T1 sequence (Q695T7 1-634): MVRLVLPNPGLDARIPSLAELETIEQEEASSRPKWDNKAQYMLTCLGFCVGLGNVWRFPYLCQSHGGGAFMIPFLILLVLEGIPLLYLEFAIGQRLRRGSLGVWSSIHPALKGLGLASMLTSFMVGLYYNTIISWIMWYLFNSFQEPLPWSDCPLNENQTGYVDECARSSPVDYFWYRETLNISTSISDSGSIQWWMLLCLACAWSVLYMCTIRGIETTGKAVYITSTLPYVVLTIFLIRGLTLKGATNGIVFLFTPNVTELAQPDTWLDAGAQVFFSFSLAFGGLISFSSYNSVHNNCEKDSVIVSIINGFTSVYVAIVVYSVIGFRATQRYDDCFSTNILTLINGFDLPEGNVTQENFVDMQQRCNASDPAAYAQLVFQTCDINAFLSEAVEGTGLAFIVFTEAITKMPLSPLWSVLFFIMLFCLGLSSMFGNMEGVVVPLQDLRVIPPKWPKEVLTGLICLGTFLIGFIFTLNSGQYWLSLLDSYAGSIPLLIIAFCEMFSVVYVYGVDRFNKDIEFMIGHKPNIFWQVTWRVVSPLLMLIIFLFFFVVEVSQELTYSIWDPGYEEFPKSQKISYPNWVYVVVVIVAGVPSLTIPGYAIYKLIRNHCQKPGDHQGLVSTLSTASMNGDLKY
# T1 sequence (Q9HBJ8 15-222 partner): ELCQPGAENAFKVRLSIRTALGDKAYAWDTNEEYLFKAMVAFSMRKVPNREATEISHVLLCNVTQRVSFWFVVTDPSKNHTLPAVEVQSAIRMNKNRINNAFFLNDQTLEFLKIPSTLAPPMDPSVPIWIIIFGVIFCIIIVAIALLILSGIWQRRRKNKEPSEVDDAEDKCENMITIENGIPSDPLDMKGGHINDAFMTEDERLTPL
# Assay: 13C6,15N-isoleucine uptake in CHO cells with doxycycline-inducible expression of human SLC6A19 and TMEM27, RapidFire mass spectrometry (Example B-2)
# Format: cell-based
# Conditions: read-out: SLC6A19_RapidFire Uptake Assay IC50
# Experimental: Assay ready vials of CHO cells with doxycycline inducible expression of human SLC6A19 and TMEM27 were thawed, plated in T175 flasks containing DMEM/F12 media, 10% FBS, 1% Penicillin-Streptomycin, 1× UltraGlutamate, 1 mM Sodium Pyruvate, Sodium Bicarbonate (7.5 mL of 7.5% solution in 500 mL media final), 5 μg/mL Blasticidin, 150 μg/mL Hygromycin B Gold, and 500 μg/mL G418, and incubated (humidified, 37° C. with 5% CO2) for 48 hours. Media was then removed, flasks were washed with 20 mL of DPBS, and 5 mL of TrypLE™ Express was added to each flask to initiate cell dissociation. After 5 minutes, 10 mL of cell culture media was added to each flask and mixed. The cell suspension was collected and centrifuged for 5 minutes at 200×g. The supernatant was removed, and the pellet was resuspended in 10 mL of cell culture media. Resuspended cells were counted using a Vi-Cell. 30 μL/well (20,000 cells/well) of cell suspension was added to Poly-D-Lysine 384-well black/clear plates. Plates were incubated (humidified, 37° C. with 5% CO2) for 24 hours. To induce expression of human SLC6A19 and TMEM27, 10 μL of assay culture media containing 4 μg/mL doxycycline was added to each well. Assay plates were then incubated (humidified, 37° C. with 5% CO2) overnight. After incubation, the media was removed, and wells were washed 3 times with 40 μL of warmed DPBS. Next, 10 μL of warmed assay buffer (137 mM NaCl, 5 mM KCl, 1 mM CaCl2), 1 mM MgCl2, 10 mM HEPES, 10 mM glucose, pH 7.2) was added to each well. 10 μL/well of test compound or positive control compound to define 0% activity (i.e., 100% inhibition), was then added into each well. All compounds were plated in a duplicate 10-point dilution series that consisted of 2-fold dilutions. The plates were incubated (humidified, 37° C. with 5% C2) with compound for 20 minutes. Afterwards, 20 μL/well of 2 mM 13C6,15N-1-isoleucine was added to each well and plates were incubated again (humidified, 37° C. with 5% C02) for another 20 minutes. Assay buffer was then removed, and plates were washed. 70 μL/well of stop solution (75% acetonitrile, 25% HPLC grade water, 250 nM 1-leucine-1-13C (RapidFire standard)) was added to each well. The plates were sealed and then placed in a −20° C. freezer for 20 minutes. The plates were thawed at room temperature for 20 minutes and then centrifuge for 20 minutes at 3000 rpm. Using an ABSciex API4000 mass spectrometer, processed samples were loaded onto the graphitic carbon SPE-column. The time for aspiration, load/wash, elution and re-equilibration time was 600, 1500, 3000 and 500 milliseconds, respectively. Peak areas were calculated using RapidFire Integrator software.
row,SMILES,IC50 [nM]
1,"CC1(C(=O)NCc2cc3ccc([C@@H]4C[C@H]4c4ccccc4)cc3[nH]2)CC1 (racemic) [Compound 154, trans-1-methyl-N-((6-(2-phenylcyclopropyl)-1H-indol-2-yl)methyl)cyclopropane-1-carboxamide]",1360
2,"CC1(C(=O)NCc2cc3ccc(OCc4cncs4)cc3[nH]2)CC1 [Compound 48, 1-methyl-N-((6-(thiazol-5-ylmethoxy)-1H-indol-2-yl)methyl)cyclopropane-1-carboxamide]",493
3,"CCC(=O)NCc1cc2ccc(NCc3ccccc3)cc2[nH]1 [Compound 1, N-((6-(benzylamino)-1H-indol-2-yl)methyl)propionamide]",5540
4,"CC1(C(=O)NCc2cc3cc(Cl)c(Cc4ccon4)cc3[nH]2)CC1 [Compound 159, N-((5-chloro-6-(isoxazol-3-ylmethyl)-1H-indol-2-yl)methyl)-1-methylcyclopropanecarboxamide]",493
5,"Cc1ccc(COc2cc3[nH]c(CNC(=O)C4(C)CC4)cc3cc2Cl)cn1 [Compound 37, N-((5-chloro-6-((6-methylpyridin-3-yl)methoxy)-1H-indol-2-yl)methyl)-1-methylcyclopropane-1-carboxamide]",625
6,"CC1(C(=O)NCc2cc3ccc(OCc4cscn4)cc3[nH]2)CC1 [Compound 164, 1-methyl-N-((6-(thiazol-4-ylmethoxy)-1H-indol-2-yl)methyl)cyclopropane-1-carboxamide]",98
7,"O=C(NCc1cc2cc(Cl)c(OCc3ccon3)cc2[nH]1)N1CCCC1 [Compound 112, N-((5-chloro-6-(isoxazol-3-ylmethoxy)-1H-indol-2-yl)methyl)pyrrolidine-1-carboxamide]",193
8,"Cn1ncc(COc2ccc3cc(CNC(=O)C4(C)CC4)[nH]c3c2)n1 [Compound 173, 1-methyl-N-((6-((2-methyl-2H-1,2,3-triazol-4-yl)methoxy)-1H-indol-2-yl)methyl)cyclopropane-1-carboxamide]",926
9,"Cc1c(CNC(=O)C2(C)CC2)[nH]c2cc(OCc3ccccc3)ccc12 [Compound 156, N-((6-(benzyloxy)-3-methyl-1H-indol-2-yl)methyl)-1-methylcyclopropane-1-carboxamide]",198
10,"CCC(=O)NCc1cc2ccc(OCc3cc(C)on3)cc2[nH]1 [Compound 47, N-((6-((5-methylisoxazol-3-yl)methoxy)-1H-indol-2-yl)methyl)propionamide]",698
11,"O=C(NCc1cc2cc(Cl)c(OCc3cncs3)cc2[nH]1)N1CCCC1 [Compound 119, N-((5-chloro-6-(thiazol-5-ylmethoxy)-1H-indol-2-yl)methyl) pyrrolidine-1-carboxamide]",485
12,"CC1(C(=O)NCc2cc3ccc(OCc4ccccn4)cc3[nH]2)CC1 [Compound 54, 1-methyl-N-((6-(pyridin-2-ylmethoxy)-1H-indol-2-yl)methyl)cyclopropane-1-carboxamide]",155
13,"Cc1cccc(COc2cc3[nH]c(CNC(=O)C4(C)CC4)cc3cc2Cl)n1 [Compound 42, N-((5-chloro-6-((6-methylpyridin-2-yl)methoxy)-1H-indol-2-yl)methyl)-1-methylcyclopropane-1-carboxamide]",1620
14,"CNC(=O)NCc1cc2ccc(OCc3ccon3)cc2[nH]1 [Compound 107, 1-((6-(isoxazol-3-ylmethoxy)-1H-indol-2-yl)methyl)-3-methylurea]",5890
15,"CC1(C(=O)NCc2cc3cc(Cl)c(OCc4ccsn4)cc3[nH]2)CC1 [Compound 38, N-((5-chloro-6-(isothiazol-3-ylmethoxy)-1H-indol-2-yl)methyl)-1-methylcyclopropane-1-carboxamide]",44
16,"Cc1c(CNC(=O)C2(C)CC2)[nH]c2cc(OCc3ccon3)ccc12 [Compound 155, N-((6-(isoxazol-3-ylmethoxy)-3-methyl-1H-indol-2-yl)methyl)-1-methylcyclopropane-1-carboxamide]",311
17,"CC1(C(=O)NCc2cc3ccc(OCc4ccon4)cc3[nH]2)CC1 [Compound 20, N-((6-(isoxazol-3-ylmethoxy)-1H-indol-2-yl)methyl)-1-methylcyclopropane-1-carboxamide]",168
18,"Cc1nc(COc2ccc3cc(CNC(=O)C4(C)CC4)[nH]c3c2)cs1 [Compound 179, 1-methyl-N-((6-((2-methylthiazol-4-yl)methoxy)-1H-indol-2-yl)methyl)cyclopropane-1-carboxamide]",1420
19,"Cc1nnc(COc2ccc3cc(CNC(=O)C4(C)CC4)[nH]c3c2)o1 [Compound 167, 1-methyl-N-((6-((5-methyl-1,3,4-oxadiazol-2-yl)methoxy)-1H-indol-2-yl)methyl)cyclopropane-1-carboxamide]",7500
20,"CC1(C(=O)NCc2[nH]c3cc(OCc4ccon4)ccc3c2Cl)CC1 [Compound 157, N-((3-chloro-6-(isoxazol-3-ylmethoxy)-1H-indol-2-yl)methyl)-1-methylcyclopropane-1-carboxamide]",43
21,"CC1(C(=O)NCc2cc3ccc(NCc4ccccn4)cc3[nH]2)CC1 [Compound 4, 1-methyl-N-((6-((pyridin-2-ylmethyl)amino)-1H-indol-2-yl)methyl)cyclopropane-1-carboxamide]",1830
22,"CNC(=O)NCc1cc2cc(Cl)c(OCc3cncs3)cc2[nH]1 [Compound 109, 1-((5-chloro-6-(thiazol-5-ylmethoxy)-1H-indol-2-yl)methyl)-3-methylurea]",515
23,"CC1(C(=O)NCc2cc3ccc(OCc4ccc(Cl)cc4)cc3[nH]2)CC1 [Compound 44, N-((6-((4-chlorobenzyl)oxy)-1H-indol-2-yl)methyl)-1-methylcyclopropane-1-carboxamide]",838
24,"O=C(NCc1cc2ccc(OCc3cocn3)cc2[nH]1)N1CCCC1 [Compound 105, N-((6-(oxazol-4-ylmethoxy)-1H-indol-2-yl)methyl)pyrrolidine-1-carboxamide]",644
25,"O=C(NCc1cc2ccc(OCc3cncs3)cc2[nH]1)N1CCCC1 [Compound 106, N-((6-(thiazol-5-ylmethoxy)-1H-indol-2-yl)methyl)pyrrolidine-1-carboxamide]",613
26,"CC1(C(=O)NCc2cc3ccc(NCc4ccccc4)cc3[nH]2)CC1 [Compound 3, N-((6-(benzylamino)-1H-indol-2-yl)methyl)-1-methylcyclopropanecarboxamide]",504
27,"Cc1cc(COc2ccc3cc(CNC(=O)C4(C)CC4)[nH]c3c2)no1 [Compound 50, 1-methyl-N-((6-((5-methylisoxazol-3-yl)methoxy)-1H-indol-2-yl)methyl)cyclopropane-1-carboxamide]",193
28,"Cc1cc(Oc2ccc3cc(CNC(=O)C4(C)CC4)[nH]c3c2)no1 [Compound 78, 1-methyl-N-((6-((5-methylisoxazol-3-yl)oxy)-1H-indol-2-yl)methyl)cyclopropanecarboxamide]",5180
29,"CC1(C(=O)NCc2cc3ccc(OCc4cocn4)cc3[nH]2)CC1 [Compound 49, 1-methyl-N-((6-(oxazol-4-ylmethoxy)-1H-indol-2-yl)methyl)cyclopropane-1-carboxamide]",412
